# Measurements reported in patent publication US20210145830A1, “MATERIALS AND METHODS FOR TREATING CANCER” (Mayo Foundation for Medical Education and Research, priority 2018, published 2021).
# Experiments:
# Type in all cases: cell-based
# CART19 and UTDs = test: Ex vivo T cell expansion and CART generation with TP0903; conditions: low dose TP0903 during ex vivo manufacture
# Text: FIG. 14 contains graphs showing CART19 or untransduced T cell expansion with or without varied concentrations of TP0903. Low dose TP0903 enhanced the expansion of CART19 and UTDs during ex vivo manufacture of CARTs.
# The murine anti-CD19 chimeric antigen receptor (single chain variable fragment derived from clone FMC63, CD8 hinge, 4-1BB costimulatory domain and CD3 zeta signaling domain) was generated de novo and cloned into a third generation lentivirus. Normal donor T cells were […] selected using negative selection Kit (Stem Cell), and expanded in vitro using anti-CD3/CD28 Dynabeads (Invitrogen, Life Technologies, Grand Island, N.Y., USA, added on the first day of culture). T cells were transduced with lentiviral supernatant one day following stimulation at a multiplicity of infection (MOI) of 3. The anti-CD3/CD28 Dynabeads were removed on day 6 and T cells were grown in T cell media (X-vivo 15 media, human serum 5%, penicillin, streptomycin and glutamax). CART cells were then cryopreserved on day 8 for future experiments. Prior to all experiments, T cells were thawed and rested overnight at 37° C.
# CART cells were generated with increasing doses of TP0903. T cells were isolated (negative selection, STEM CELL kit) and stimulated with CD3/CD28 beads on day 0. On day 1, T cells were transduced with CAR19 lentivirus at MOI of 3. […]
# Naïve T cells = test: Naïve T cell degranulation assay and cytokine production; conditions: PMA/Ionomycin
# Method: FIG. 21A-E. TP0903 modulates naïve T cells function upon stimulation of PMA/Ionomycin in vitro. A. Naïve T cell proliferation assay in the presence of TP0903. Naïve T cells were stimulated with 5 ng/ml of PMA and 0.1 μg/ml of Ionomycin in the absence or in the increasing dose of TP0903 (10-65 nM) for 3 days. […] B. At the end of the expansion on day 3, T cells were stained with inhibitory receptors. […] C. Naïve T cell degranulation assay and cytokine production in the presence of TP0903. Naïve T cells were stimulated with 50 ng/ml of PMA and 1 μg/ml of Ionomycin for 4 hours in the presence of increasing doses of TP0903 (10-65 nM). […] D. Western blot analysis of p-LCK and GATA-3 inhibition by TP0903 in naïve T cells. Naïve T cells were stimulated with 5 ng/ml of PMA and 0.1 ug/ml of Ionomycin in the absence (DMSO) or in the increasing dose of TP0903 (10-65 nM) for 24 hours. […] was used as loading control. E. TP0903 specifically reduces regulatory T cells (Treg). Effector T cells (Teff) were isolated by negative selection using RoboSep™ Human T Cell Isolation Kit (Stemcell Technologies). Tregs were isolated by negative selection using the human CD4^+CD127^lowCD25^+ Treg isolation kit (Stemcell Technologies). Teff and Treg were stimulated with anti-CD3/CD28 beads and 400 U/ml of IL-2. At day 5, total T cells were evaluated via CountBright quantification.
# CART19 cells = test: RNA-seq of TP0903 treated vs non-treated CART19 cells
# Method: FIG. 24A-B. A. Western blot analysis of p-LCK inhibition by TP0903 in CART19 cells. CART19 cells were incubated with lethally irradiated JeKo-1 in the presence of TP0903 at a 1 to 3 ratio for 24 hours. After the incubation, CART19 cells were purified with anti-CD19 micro beads. […] B. Comparison of gene expression between TP0903 treated CART19 cells and non-treated CART19 cells subpopulations using RNA-seq. CART19 cells from three biological replicates were thawed and stimulated with irradiated JeKo-1 (120 Gy) for 5 days. Each sample was treated with either 30 nM TP0903 (treated condition) or DMSO (untreated condition). Representative flow cytometric analysis of CART19 cells before RNA isolation (right). RNA-seq was performed on an Illumina […] by the Genomic Sequencing Core at Mayo Clinic.
# FIG. 28A-E. A, Western blot analysis of p-LCK inhibition by TP-0903 in CART19 cells. CART19 cells were incubated with lethally irradiated JeKo-1 in the presence of TP0903 at a 1 to 3 ratio for 24 hours. After the incubation, CART19 cells were purified with anti-CD19 micro beads. B, Representative flow cytometric analysis of CART19 cells before RNA isolation. Principal component analysis (PCA) from RNA-seq analysis of untreated cells and cells treated with 30 nM of TP-0903. […]
structure (smiles),measurement,setting,value
CN1CCN(Cc2ccc(Nc3ncc(Cl)c(Nc4ccccc4S(=O)(=O)N(C)C)n3)cc2)CC1 [TP0903],T cell expansion ex vivo and CART cell generation (CART19 and UTDs),CART19 and UTDs,enhanced
same,IL-4,"Naïve T cells; 4 hours, increasing dose of TP0903 (10-65 nM)",significant inhibition
same,cytokine production (Th1 / Th2 cytokines),Naïve T cells; low dose TP0903,favorably altered through the promotion of Th1 and reduction of Th2 cytokines
same,"immune synapse related genes (cell junction, cell migration)",CART19 cells; activated CART cells treated with TP0903,significantly increased
same,differentially expressed genes in transcriptome vs non-treated cells,CART19 cells; activated CART cells treated with TP0903 (30 nM),More than 100 genes
